Laboratory results reported in US20260015339A1, “CALIX[4]ARENES WITH HIGH ANTICANCER ACTIVITY” (UNIVERSITE GRENOBLE ALPES, priority 2023, published 2026).

Legend:
[1] = Cu^+ binding by 1H NMR titration; conditions: 1H NMR titration with Cu(MeCN)4BF4, CD3CN/CDCl3 4/1, 298 K
Description: Binding abilities and complexation constants of the examples of calix[4]arenes of the present invention and the comparative examples with Cu^+ were evaluated by ^1H NMR titrations at 298 K using copper(I)tetrakis(acetronitrile)tetrafluoroborate.
For example, for each separate calix[4]arene a stock solution of the tested calix[4]arene was prepared in a CD3CN/CDCl3, 4/1 mixture. Using this stock solution, a Cu(MeCN)4BF4 solution was prepared and added by steps of 0.25 equivalent of copper(I) up until 1 equivalent and then by steps of 0.5 equivalent until a total of at least 2 equivalents. ^1H NMR spectra were recorded at a 400 MHz spectrometer at 298 K for the stock solutions of the calix[4]arenes and after each addition of Cu(MeCN)4BF4.
Calix[4]arenes for which a gradual change of the chemical shifts of the ^1H NMR signals (>0.1 ppm for at least one of the signals) was observed upon addition of up to 4-5 equivalents of Cu(MeCN)4BF4 were considered to show weak binding.

A172 = assay: PROLiFiler-Cell Panel Screening (CellTiterGlo); type: cell-based; conditions: Homo sapiens, A 172; Brain, A172, 72 hours
Description: (§1) For the assays, cells were seeded in white cell culture-treated flat and clear bottom 384-well multiwall plates and incubated at 37° C. overnight before the calix[4]arene of the formula (2) or the reference compound were added. After incubation for 72 hours at 37° C. at 5% or 10% CO2 depending on the medium, cell plates were equilibrated to room temperature (i.e. 20° C.) for one hour, CellTiterGlo® reagent from the firm Promega was added and luminescence was measured approximately an hour later using a luminometer.
(§2) Raw data were converted into percent cell viability relative to the high and low control, which were set to 100% and 0%, respectively.

A375 = assay: PROLiFiler-Cell Panel Screening (CellTiterGlo); type: cell-based; conditions: Homo sapiens, A-375; Skin, A375, 72 hours
Description: as §1, §2

COR-L279 = assay: PROLiFiler-Cell Panel Screening (CellTiterGlo); type: cell-based; conditions: Homo sapiens; Lung, COR-L279, 72 hours
Description: as §1, §2

DLD-1 = assay: PROLiFiler-Cell Panel Screening (CellTiterGlo); type: cell-based; conditions: Homo sapiens; Colon, DLD-1, 72 hours
Description: as §1, §2

H460 = assay: PROLiFiler-Cell Panel Screening (CellTiterGlo); type: cell-based; conditions: Homo sapiens, NCI-H460; Lung, H460, 72 hours
Description: as §1, §2

H4 = assay: PROLiFiler-Cell Panel Screening (CellTiterGlo); type: cell-based; conditions: Brain, H4, 72 hours
Description: as §1, §2

HCC827 = assay: PROLiFiler-Cell Panel Screening (CellTiterGlo); type: cell-based; conditions: Homo sapiens; Lung, HCC827, 72 hours
Description: as §1, §2

HCT116 = assay: PROLiFiler-Cell Panel Screening (CellTiterGlo); type: cell-based; conditions: Homo sapiens, HCT-116; Colon, HCT116, 72 hours
Description: as §1, §2

HL-60 = assay: PROLiFiler-Cell Panel Screening (CellTiterGlo); type: cell-based; conditions: Homo sapiens; Blood, HL-60, 72 hours
Description: as §1, §2

HT-1080 = assay: PROLiFiler-Cell Panel Screening (CellTiterGlo); type: cell-based; conditions: Homo sapiens; Fibrosarcoma, HT-1080, 72 hours
Description: as §1, §2

HT-29 = assay: PROLiFiler-Cell Panel Screening (CellTiterGlo); type: cell-based; conditions: Homo sapiens; Colon, HT-29, 72 hours
Description: as §1, §2

HeLa = assay: PROLiFiler-Cell Panel Screening (CellTiterGlo); type: cell-based; conditions: Homo sapiens, Cervix, 72 hours
Description: as §1, §2

Hep3B2.1-7 = assay: PROLiFiler-Cell Panel Screening (CellTiterGlo); type: cell-based; conditions: Liver, Hep3B2.1-7, 72 hours
Description: as §1, §2

K562 = assay: PROLiFiler-Cell Panel Screening (CellTiterGlo); type: cell-based; conditions: Homo sapiens; Blood, K562, 72 hours
Description: as §1, §2

KARPAS 299 = assay: PROLiFiler-Cell Panel Screening (CellTiterGlo); type: cell-based; conditions: Homo sapiens; Blood, KARPAS 299, 72 hours
Description: as §1, §2

LOU-NH91 = assay: PROLiFiler-Cell Panel Screening (CellTiterGlo); type: cell-based; conditions: Lung, LOU-NH91, 72 hours
Description: as §1, §2

MDA MB 435 = assay: PROLiFiler-Cell Panel Screening (CellTiterGlo); type: cell-based; conditions: Homo sapiens; Skin, MDA MB 435, 72 hours
Description: as §1, §2

MKN-1 = assay: PROLiFiler-Cell Panel Screening (CellTiterGlo); type: cell-based; conditions: Homo sapiens; Stomach, MKN-1, 72 hours
Description: as §1, §2

NCI-H1573 = assay: PROLiFiler-Cell Panel Screening (CellTiterGlo); type: cell-based; conditions: Homo sapiens; Lung, NCI-H1573, 72 hours
Description: as §1, §2

SW948 = assay: PROLiFiler-Cell Panel Screening (CellTiterGlo); type: cell-based; conditions: Homo sapiens; Colon, SW948, 72 hours
Description: as §1, §2

SiHa = assay: PROLiFiler-Cell Panel Screening (CellTiterGlo); type: cell-based; conditions: Homo sapiens, Cervix, 72 hours
Description: as §1, §2

U118MG = assay: PROLiFiler-Cell Panel Screening (CellTiterGlo); type: cell-based; conditions: Homo sapiens, U-118-MG, Brain, 72 hours
Description: as §1, §2

U251MG = assay: PROLiFiler-Cell Panel Screening (CellTiterGlo); type: cell-based; conditions: Homo sapiens, U-251, Brain, 72 hours
Description: as §1, §2

[2] = test system: PC9 human lung cancer cells; assay: MTS cytotoxicity assay, combination with CuCl2, PC9; conditions: Homo sapiens, 72 h, read-out: percentage of cell viability
Description: PC9 human lung cancer cells were seeded in 96-well plates together with the calix[4]arene of the formula (2) and CuCl2. Cells were grown in RPMI-1640 supplemented with GlutaMAX™ (Gibco™) and fetal calf serum (FCS, 10%) treated with a broad range of concentrations of the calix[4]arene of the formula (2) or/and CuCl2 from Merck. After 72 hours of treatment, the cytotoxicity was measured by means of the IC50 value, using the kit “CellTiter 96R AQuous One Solution Cell Proliferation Assay (MTS)” from Promega™. Following 30 minutes of incubation with the MTS reagent, the endpoint measurements were done in triplicate at 485 nm, using a fluorescence plate reader.

[3] = test system: H322 lung carcinoma cells; assay: MTS cytotoxicity assay, combination with CuCl2, H322; conditions: NCI-H322, 72 h, read-out: percentage of cell viability
Description: H322 lung carcinoma cells were seeded in 96-well plates together with the calix[4]arene of the formula (2) and CuCl2. Cells were grown in RPMI-1640 supplemented with GlutaMAX™ (Gibco™) and fetal calf serum (FCS, 10%) treated with a broad range of concentrations of the calix[4]arene of the formula (2) or/and CuCl2 from Merck. After 72 hours of treatment, the cytotoxicity was measured by means of the IC50 value, using the kit “CellTiter 96R AQuous One Solution Cell Proliferation Assay (MTS)” from Promega™ Following 30 minutes of incubation with the MTS reagent, the endpoint measurements were done in triplicate at 485 nm, using a fluorescence plate reader.

| SMILES | IC50 (A172) [nM] | IC50 (A375) [nM] | IC50 (COR-L279) [nM] | IC50 (DLD-1) [nM] | IC50 (H460) [nM] | IC50 (H4) [nM] | IC50 (HCC827) [nM] | IC50 (HCT116) [nM] | IC50 (HL-60) [nM] | IC50 (HT-1080) [nM] | IC50 (HT-29) [nM] | IC50 (HeLa) [nM] | IC50 (Hep3B2.1-7) [nM] | IC50 (K562) [nM] | IC50 (KARPAS 299) [nM] | IC50 (LOU-NH91) [nM] | IC50 (MDA MB 435) [nM] | IC50 (MKN-1) [nM] | IC50 (NCI-H1573) [nM] | IC50 (SW948) [nM] | also measured |
| --- | --- | --- | --- | --- | --- | --- | --- | --- | --- | --- | --- | --- | --- | --- | --- | --- | --- | --- | --- | --- | --- |
| CCCOc1c2cccc1Cc1cccc(c1OCc1nccn1C)Cc1cccc(c1OCCC)Cc1cccc(c1OCc1nccn1C)C2 [(2)] | 1210 | 1170 | 1510 | 1080 | 727 | 2900 | 1720 | 950 | 1450 | 1900 | 1200 | 1700 | 781 | 1890 | 1480 | 652 | 2770 | 2160 | 2210 | 2150 | Cu^+ binding [1]: Strong binding (means an affinity constant (Ka) equal or greater than 10^5 M^−1); IC50 (SiHa): 1250 nM; IC50 (U118MG): 2030 nM; IC50 (U251MG): 3530 nM; viability at 0.1 µM [2]: 99.9%; viability at 0.5 µM [2]: 93.1%; viability at 1 µM [2]: 75.8%; viability at 1.5 µM [2]: 24.4%; viability at 0.1 µM [3]: 96.5%; viability at 0.5 µM [3]: 94.1%; viability at 1 µM [3]: 87%; viability at 1.5 µM [3]: 62.6% |
| CC(C)C[C@H](NC(=O)[C@H](Cc1ccccc1)NC(=O)c1cnccn1)B(O)O [bortezomib, reference compound] | 4.77 | 5.44 | 4.94 | 6.83 | 28.8 | 8.36 | 8.4 | 6.78 | 3.73 | 13.8 | 5.99 | 18.7 | 7.98 | 14.6 | 3.96 | 7.04 | 4.3 | 4.32 | 16.7 | 8.88 | IC50 (SiHa): 7.41 nM; IC50 (U118MG): 4.14 nM; IC50 (U251MG): 9.16 nM |
